Legend:
[1] = system: mice bearing L1210 leukemia cells; assay: Splenic lymphopoiesis in mice bearing L1210 leukemia cells; format: in vivo, DBA/2 mice; conditions: 20 mg/kg, iv × 7
Procedure: Each of 60 DBA/2 mice was inoculated subcutaneously with 1×10^4 L1210 leukemia cells of mice. Next day, the mice were grouped randomly into 6 groups (10 mice per group): Lentinan 20 mg/kg, the injection of the invention (6.25 ml/kg, 12.5 ml/kg and 25 ml/kg), solvent control and NS control. Animals were administered, i.v., for 7 days, then sacrificed. Spleens were picked up in aseptic condition. Splenocytes were counted and adjusted into 1×10^7/ml. Cells (100 μl/well) and medium (100 μl/well) were added into wells of a 96 well microplate in triplicate. The 96 well microplate was incubated in a 37° C. incubator under 5% CO2 for 48 h. Then, ^3H-TdR (0.5 μci/well) was added and the incubation was continued for 20 h. Cells were collected, and CPM values were determined and compared with control groups. […] Lentinan has also shown immuno-enhancement effect.

IL-2 = assay: Production of IL-2 in mice suffering from L1210 leukemia (CTLL cell 3H-TdR incorporation); format: in vivo, DBA/2 mice; conditions: 20 mg/kg, iv × 7
Procedure: Each of 60 DBA/2 mice was inoculated subcutaneously with 1×10^4 L1210 leukemia cells of mice. Next day, the mice were grouped randomly into 6 groups (10 mice per group): Lentinan 20 mg/kg, the injection of the invention (6.25 ml/kg, 12.5 ml/kg and 25 ml/kg), solvent control and NS control. Animals were administered, i.v., for 7 days, then sacrificed. Spleens were picked up in aseptic condition. Splenocytes were prepared and adjusted into 1×10^7/ml. To each well of a 24 well plate were added splenocytes cells (2 ml) and Con A (5 μg/ml). After the plate was incubated in a 37° C. incubator under 5% CO2 for 24 h, the supernate was collected. The activity of IL-2 was determined in IL-2 dependent CTLL cell strain by using the method of ^3H-TdR incorporation.

Splenocytes = assay: Splenic lymphopoiesis induced by ConA in mice in vitro (3H-TdR incorporation); format: cell-based, C57BL/6 mice
Procedure: Spleens were picked up from C57BL/6 mice in aseptic condition. Splenocytes were separated and the concentration of cells was adjusted to 1×10^7 cells/ml with RPMI 1640+15% FCS medium. The experiment groups were as follows: the injection of the invention in four concentrations, lentinan (positive control group) in four concentrations, corresponding solvent (blank control I) and medium (blank control II). 100 μl Cells, 100 μl solution of drug/control and 50 μl ConA were added in each well in triplicate. The 96 well microplate was incubated in a 37° C. incubator under 5% CO2 for 48 h. ^3H-TdR (0.5 μci/well) was added and the incubation was continued for 20 h. Cells were collected, and CPM values were determined in a liquid scintillation counter and compared with control groups. It is shown in the results (table 3) that the injection of the invention, as same as lentinan, has obviously facilitated the splenic lymphopoiesis in mice in vitro and the effect is linear dependent to the concentration.

NK cells [2] = assay: Activity of NK cells in mice bearing cancer; format: in vivo, DBA/2 mice; conditions: 20 mg/kg, iv × 7
Procedure: Each of 60 DBA/2 mice was inoculated subcutaneously with 1×10^4 L1210 leukemia cells of mice. Next day, the mice were grouped randomly into 6 groups (10 mice per group): Lentinan 20 mg/kg, the injection of the invention (6.25 ml/kg, 12.5 ml/kg and 25 ml/kg), solvent control and NS control. Animals were administered, i.v., for 7 days, then sacrificed. Spleens were picked up in aseptic condition. Splenocytes were prepared and adjusted into 1×10^6/ml. The activity of NK cells was detected by using the inhibition on ^3H-TdR incorporation. To wells of a 96 well microplate were added splenocytes cells (effector cells) 100 μl/well, YAC-1 cells (target cells, 1×10^4 cells/ml) 100 μl/well and ^3H-TdR 0.5 μci/well, in triplicate. After being incubated in a 37° C. incubator under 5% CO2 for 24 h, cells were collected, and CPM values were determined. The specific percentage inhibition (Pi), indicating the activity of NK cells, was calculated according to the above formula.

NK cells [3] = assay: Activity of NK cells in mice in vitro (inhibition of 3H-TdR incorporation, YAC-1 target cells); format: cell-based, C57BL/6 mice; conditions: for CPM (x ± SD), activity of NK cells in mice in vitro: splenocytes:YAC-1 100:1, 24 h
Procedure: Method: The activity of NK cells were detected by the inhibition on ^3H-TdR incorporation.
Spleens were picked up from C57BL/6 mice in aseptic condition. Splenocytes, as effector cells, were adjusted to 1×10^6 cells/ml. YAC-1 cells, target cells, which have been cultured for 24 h, were adjusted to 1×10^4 cells/ml. The cells were added into wells of a 96 well microplate (100 μl/well). The experiment groups were as follows: the injection of the invention in four concentrations, lentinan (positive control group) in four concentrations, corresponding solvent (blank control I) and medium (blank control II). To each well of a 96 well microplate were added Splenocytes: YAC-1 cells=100: 1 (100 μl), test sample (100 μl) and ^3H-TdR 0.5 μci/well. After being incubated in a 37° C. incubator under 5% CO2 for 24 h, cells were collected, and CPM values were determined. The specific percentage inhibition (Pi), indicating the activity of NK cells, was calculated according to the formula: Pi=(1−CPMExp./CPMcont.)×100%

Lentinan was tested, and the “CPM (x ± SD), splenic lymphopoiesis in mice bearing L1210 leukemia cells” value [1] was 7410 ± 770 CPM, the “CPM (x ± SD), production of IL-2 in mice suffering from L1210 leukemia” value (IL-2) was 2750 ± 123 CPM and the “CPM (x ± SD), splenic lymphopoiesis in mice in vitro” value (Splenocytes; 100 μl (1:1)) was 7700 ± 747 CPM. The “CPM (x ± SD), splenic lymphopoiesis in mice in vitro” value (Splenocytes; 100 μl (1:2)) was 11025 ± 1133 CPM, the “CPM (x ± SD), splenic lymphopoiesis in mice in vitro” value (Splenocytes; 100 μl (1:4)) was 11555 ± 1279 CPM and the “CPM (x ± SD), splenic lymphopoiesis in mice in vitro” value (Splenocytes; 100 μl (stock solution)) was 7420 ± 957 CPM. The “CPM (x ± SD), activity of NK cells in mice bearing cancer” value (NK cells [2]) was 5660 ± 260 CPM, the “Pi (%), activity of NK cells in mice bearing cancer” value (NK cells [2]) was 54.5% and the “Pi % (specific percentage inhibition, activity of NK cells) in vitro” value (NK cells [3]; 100 μl (1:1)) was 33.5%. For the same substance, the “CPM (x ± SD), activity of NK cells in mice in vitro” value (shortened to “CPM (x ± SD), activity … in vitro”) (NK cells [3]; 100 μl (1:1)) was 8130 ± 930 CPM, the “Pi % (specific percentage inhibition, activity of NK cells) in vitro” value (NK cells [3]; 100 μl (1:2)) was 35.5% and the “CPM (x ± SD), activity … in vitro” value (NK cells [3]; 100 μl (1:2)) was 7892 ± 995 CPM. The “Pi % (specific percentage inhibition, activity of NK cells) in vitro” value (NK cells [3]; 100 μl (1:4)) was 54.5%, the “CPM (x ± SD), activity … in vitro” value (NK cells [3]; 100 μl (1:4)) was 5544 ± 85 CPM and the “Pi % (specific percentage inhibition, activity of NK cells) in vitro” value (NK cells [3]; 100 μl (stock solution)) was 29.5%. The “CPM (x ± SD), activity … in vitro” value (NK cells [3]; 100 μl (stock solution)) was 8625 ± 1135 CPM.

— patent US9585858B2, “Pharmaceutical composition containing 13 triglycerides, and preparations and use thereof” (ZHEJIANG KANGLAITE GROUP CO., LTD., priority 2014, dated 2017)
